Results: ChEMBL document CHEMBL1157539, “Thousands of chemical starting points for antimalarial lead identification” (Nature, 2010)

System: Plasmodium falciparum
Experiment: GSK_TCMDC: Inhibition of Plasmodium falciparum 3D7 in whole erythrocytes, using parasite LDH activity as an index of growth.
Assay type: functional, organism-based
Settings: Plasmodium falciparum, 3D7

## O=C(Nc1cccc(-c2csc(-c3nc4ccccc4[nH]3)c2)c1)c1ccncc1
  XC50: 256 nM

## COc1ccc(CN(C)C(=O)CCNS(=O)(=O)c2ccc3c(c2)OCCCO3)cc1F
  XC50: 656 nM

## N#Cc1c(F)cc(N2CCC(NCC[C@H](N)Cc3ccc(F)c(F)c3)CC2)cc1F
  XC50: 857 nM

## OC(CNc1ccnc(Nc2cccc(CCN3CCOCC3)c2)n1)c1ccccc1 (configuration not stated)
  XC50: 594 nM

## Cc1cc(=NN=Cc2ccccc2Cl)c2cccc(C)c2[nH]1
  XC50: 705 nM

## O=C(N[C@H]1CCCC[C@H]1C(=O)O)c1ccccc1
  XC50: 781 nM

## COC(=O)c1cccc(CNCc2ccc(-c3ccc(-c4nc5cc(F)ccc5[nH]4)cc3)cc2)c1
  XC50: 237 nM

## O=C(/C=C/c1ccc(Cl)c(Cl)c1)NCCCCCN1CC[C@H](NC(=O)/C=C/c2ccccc2)C1
  XC50: 1000 nM

## c1ccc(Oc2ccc(Nc3ccnc4cc(-c5csc(CN6CCCCC6)n5)ccc34)cc2)nc1
  XC50: 579 nM

## Cc1cccc2c(CON3C(N)=NC(N)=NC3(C)C)cccc12
  XC50: 3.2 nM

## Oc1ccc(CC2CCCN(c3nc(NCCCOc4ccccc4-c4ccccc4)nc(N4CCNCC4)n3)C2)cc1 (configuration not stated)
  XC50: 916 nM

## Cc1c(O)cccc1Nc1ccnc2ccc(C(F)(F)F)cc12
  XC50: 31.1 nM

## CC(C)NCc1cccc(-c2cccc(NC(=O)c3cccc(C#N)c3)c2)c1
  XC50: 823 nM

## O=C(Nc1ccc2c(c1)CCC2)c1ccc(CN2CCCN(Cc3cccc(O)c3)CC2)cc1
  XC50: 894 nM

## COc1ccc2nc(C)cc(NC3Cc4ccccc4C3)c2c1
  XC50: 839 nM

## COc1ccc(CCn2c(=N)c(C(=O)NCc3ccc(C)cc3)cc3c(=O)n4ccccc4nc32)cc1
  XC50: 1130 nM

## CS(=O)(=O)CCNCc1ccc(-c2ccc3c(Nc4ccc(Oc5ccccn5)cc4)ccnc3c2)o1
  XC50: 715 nM

## COc1cccc(C(=O)C2CC2CN(C)CCC(O)c2ccc(Cl)c(Cl)c2)c1 (configuration not stated)
  XC50: 756 nM

## COc1ccc(-c2cccc(NC(=O)c3ccccc3)c2)cc1CN1CCCN(C)CC1
  XC50: 733 nM

## CN(C)Cc1ccc(-c2cc3c(-c4ccc(CN(C)C)cc4)ccnc3[nH]2)cc1
  XC50: 887 nM

## COc1ccc(Nc2c3ccc(Cl)cc3nc3ccc(OC)cc23)cc1
  XC50: 441 nM

## C/C=C1\CN2CC[C@H]1C[C@H]2[C@H](O)c1ccnc2ccc(OC)cc12
  XC50: 318 nM

## Cc1cc2c(/C=C/C(=O)NC3CCC(CCN4CCc5ccc(C#N)cc5CC4)CC3)cccc2[nH]1 (configuration not stated)
  XC50: 840 nM

## C#CCOc1ccccc1CN1CCC(N2CCc3cc(NC(=O)c4cc(C)on4)ccc32)C1 (configuration not stated)
  XC50: 675 nM

## CC[C@H]1CN2CC[C@@H]1C[C@H]2[C@H](O)c1ccnc2ccc(Cl)cc12
  XC50: 119 nM

## COc1cccc(CCN(Cc2ccccc2-c2ccc(CNC3CC(C)(C)NC(C)(C)C3)cc2)C(=O)NC2CCCCC2)c1
  XC50: 932 nM

## COc1cccc(-c2ccc(C(=O)NC3CCN(Cc4ccc(C(C)(C)C)cc4)CC3)s2)c1
  XC50: 1600 nM

## COCC(=O)N(Cc1ccccc1-c1cccc(CNCCc2ccccc2)c1)C1CCN(Cc2ccccc2)CC1
  XC50: 1100 nM

## CCCc1cc(N2CCC(N3CCCC3)CC2)nc(Nc2ccc(OC)cc2)n1
  XC50: 807 nM

## CCNc1cc(C(=O)N[C@@H](Cc2ccccc2)[C@H](O)CNC(C)(C)CCCC(C)C)cc(N2CCCC2=O)c1
  XC50: 827 nM

## CC1CCCC(Nc2noc(-c3sccc3Br)n2)C1 (configuration not stated)
  XC50: 689 nM

## COc1ccc(C2CCN(CCCCNC(=O)c3ccc(NC(=O)c4ccc(Cl)cc4)cc3)CC2)c(OC)c1
  XC50: 570 nM

## CCC(CC)(Cc1ccccc1)NC(=O)[C@H](CC1CCCCC1)Nc1ccc(C#N)c2ccccc12
  XC50: 634 nM

## COc1ccc(-c2cccc(NC(=O)c3cccc(C#N)c3)c2)cc1CN1CCN(C)CC1
  XC50: 926 nM

## NC(=O)c1ccccc1Nc1nc(Nc2ccc(N3CCOCC3)cc2)ncc1[N+](=O)[O-]
  XC50: 881 nM

## O=C(C=Cc1cn(-c2ccccc2)nc1-c1cccs1)N1CCN(c2ccncc2)CC1
  XC50: 721 nM

## CCOc1c(CNCCCCCCNCc2ccc3ccccc3c2OCC)ccc2ccccc12
  XC50: 759 nM

## Cn1cccc1C(=O)C(=O)Nc1ccc(-c2ccc(-c3nc4cc(F)ccc4[nH]3)cc2)cc1
  XC50: 838 nM

## COc1ccc(-c2cccc(CNCc3ccc(F)cc3)c2)cc1S(=O)(=O)NCCN1CCCC1
  XC50: 1850 nM

## CCOc1ccc(C(=O)Nc2ccc(-c3nc4ccccc4[nH]3)cc2)cc1[N+](=O)[O-]
  XC50: 591 nM

## O=c1cc(NCCCNC2CCOc3c(I)cc(Cl)cc32)[nH]c2ccccc12 (configuration not stated)
  XC50: 832 nM

## CCOc1ccc2[nH]c(C)cc(=NN=Cc3ccncc3)c2c1
  XC50: 991 nM

## O=C(NCc1ccccc1)Nc1ccc(-c2ccc(-c3nc4cc(C(F)(F)F)ccc4[nH]3)cc2)cc1
  XC50: 671 nM

## O=C(C=CC(=O)N1CCCCC1)NCc1ccccc1
  XC50: 732 nM

## COc1ccc(Br)cc1/C=C/C(=O)Nc1cccc(C2CCCN(C)C2)c1 (configuration not stated)
  XC50: 892 nM

## Oc1ccc2[nH]c(-c3cccc(F)c3)nc2c1CNCc1ccccc1
  XC50: 916 nM

## CNC(=O)c1cc(Nc2nnc(-c3ccc(C)c(S(=O)(=O)NC4CCCCC4)c3)c3ccccc23)ccc1OC
  XC50: 904 nM

## O=C(/C=C/c1ccc(Cl)c(Cl)c1)NCCCCCN1CCC(NC(=O)NC2CCCCCC2)CC1
  XC50: 464 nM

## COc1cccc(CNCC(C)(C)c2nc(-c3ccc(Cl)c(O)c3)c(-c3ccncc3)[nH]2)c1
  XC50: 693 nM

## CCCCc1ccc(C(=O)NC2CCN(C[C@H](O)c3ccnc4ccc(OC)cc34)CC2)cc1
  XC50: 728 nM

## O=C(Nc1ccsc1)Nc1cccc(-c2cccc(-c3nc4cc(C(F)(F)F)ccc4[nH]3)c2)c1
  XC50: 150 nM

## COc1ccc2cc(C(c3nnnn3CC3CCCO3)N3CCc4ccccc43)c(=O)[nH]c2c1 (configuration not stated)
  XC50: 795 nM

## CCCCN(Cc1cccc(C(F)(F)F)c1Cl)c1ccc(C(O)(C(F)(F)F)C(F)(F)F)cc1
  XC50: 960 nM

## Cc1cc(N2CCCC2)nc(Nc2ccc(NC(=O)CC(C)C)cc2)n1
  XC50: 841 nM

## COC(=O)c1ccc(CC(C)NCC(O)c2ccccc2Cl)cc1 (configuration not stated)
  XC50: 1010 nM

## Cc1nc(NCCCn2ccnc2)cc(-c2cncc(-c3ccc(OC(F)(F)F)cc3)c2)n1
  XC50: 616 nM

## Nc1nc(N)c2c(Cl)c(N3CCOCC3)ccc2n1
  XC50: 76.9 nM

## CCN(CC)CCCC(C)Nc1c(-c2ccc(C)cc2)cnc2ccccc12 (configuration not stated)
  XC50: 200 nM

## Cc1ccc(C(=O)Cn2nc(-c3ccc(C)c(S(=O)(=O)N4CCCC4)c3)ccc2=O)cc1
  XC50: 513 nM

## O=C(Nc1cccc(CN2CCCN(Cc3ccccc3)CC2)c1)c1cc2ccccc2s1
  XC50: 1200 nM

## Clc1ccc2c(NCCNc3ccnc4cc(Cl)ccc34)ccnc2c1
  XC50: 396 nM

## COc1ccc(CN2CCC(C(=O)Nc3cccc(-c4cccc(Cl)c4)c3)CC2)cc1O
  XC50: 975 nM

## O=C(Nc1cccc(CN2CCCN(Cc3ccccc3)CC2)c1)c1ccc(Cl)c(Cl)c1
  XC50: 896 nM

## Cc1cccc(CNc2nc(C)cc(NCCC(=O)Nc3ccccc3)n2)c1
  XC50: 1050 nM

## CCOc1cc(C(=O)Nc2cccnc2)ccc1-c1nc2cc(Cl)c(Cl)cc2[nH]1
  XC50: 1010 nM

## Oc1ccc(Cl)cc1-c1cc(C(F)(F)F)nc(-c2ccccc2)n1
  XC50: 753 nM

## CC(C)CNCc1ccc(-c2ccc(CNC3CCN(Cc4ccccc4)CC3)cc2)cc1
  XC50: 558 nM

## COc1ccc(CNC(=N)Nc2nc(-c3ccc(OCCCn4ccnc4)cc3)cs2)cc1
  XC50: 393 nM

## CC(CN(C)C)C(=O)Nc1cccc(-c2ccc(-c3nc4cc(F)ccc4[nH]3)cc2)c1 (configuration not stated)
  XC50: 653 nM

## COc1ccccc1C1CCN(C2CCC(NC(=O)/C=C/c3ccc(OC(F)(F)F)cc3)CC2)CC1 (configuration not stated)
  XC50: 1350 nM

## CC(C)Cc1cn(-c2nc(C(=N)N)cs2)c2cc(Cl)ccc12
  XC50: 154 nM

## Cc1cccc(C)c1CNc1cccc(-c2nc(C)c(C)[nH]2)c1
  XC50: 883 nM
